Test results published in PubChem BioAssay AID2060329 (Molecular Pharmacology Branch, DTP, NCI, 2025).
Values joined by “and” are separate entries in the source; they are usually repeats but may differ in a detail not shown here. Equal values may be shown once.

System: MCF7 multi-cell spheroids with HUVEC/MSC, viability
Assay: Anticancer human tumor MCF7 cell line growth inhibition [IpAb];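 note: spheroids exposed to agents for seven days before readout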
Conditions: for viability, T/C: stronger effect = lower value
Excerpt: Combinatorial screen of targeted agents with ipatasertib and abemaciclib in multi-cell type tumor spheroids
A high-throughput screen of multi-cell type tumor spheroids was designed to identify active combinations of targeted small molecules and ipatasertib or abemaciclib. Complex spheroids include a stromal component modeled by human endothelial cells (HUVEC) and fibroblasts modeled by human mesenchymal stem cells (MSCs). The concentration ranges selected for each drug and investigational agent were based upon clinically achievable concentrations if the clinical Cmax of the agent was known.
Compounds. The drugs and investigational agents: ipatasertib (NSC767898), abemaciclib(NSC768073), selumetinib (NSC741078), trametinib (758246), adavosertib (NSC754352), everolimus (NSC733504), sapanisertib (NSC764658), vemurafenib (NSC761431), venetoclax (NSC766270), copanlisib (NSC809693), apelisib (NSC765974), palbociblib (NSC758247), vemurafenib (NSC761431), dabrafenib (NSC764134), ravoxertinib (NSC781343), BMS-387032 (NSC767048), sotorasib (NSC818433), talazoparib (NSC767125) and afursertib (NSC778305), were obtained from the National Cancer Institute (NCI) Developmental Therapeutics Program Chemical Repository. The FDA-approved anticancer drug set is available from the NCI Developmental Therapeutics Program. […] The stock solutions were prepared in dimethyl sulfoxide (DMSO, Sigma-Aldrich, St. Louis, MO, cat. D2650) at 800-fold the tested concentration and stored at -70 degrees C prior to their use. All drugs and investigational agents were tested over a range starting from a high concentration at or near the clinical Cmax and decreasing in half-log increments. If the clinical Cmax for an agent had not been determined, the highest concentration tested was 10 microM.
NCI60 Cell Culture. NCI60 cell lines were obtained from the NCI Developmental Therapeutics Program Tumor Repository. For each lot of cells, the Repository performed Applied Biosystems AmpFLSTR Identifiler testing with PCR amplification to confirm consistency with the published Identifier STR profile for each cell line. Cells were kept in continuous culture for no more than 20 passages. The optimal seeding densities for each of the cell lines at each time point assessed were determined prior to performing the concentration response studies. Briefly, the NCI60 human tumor lines were grown as monolayers in RPMI 1640 medium supplemented with 10% FBS and 2 mmol/L L-glutamine.
An additional 9 lines were from the NCI60 cell line panel including MDA-MB-231 breast carcinoma, MDA-MB-468 breast carcinoma, MCF7 breast carcinoma, Hs578T breast carcinoma, MALME-3M melanoma, SK-MEL-2 melanoma, SK-OV-3 ovarian carcinoma, DU-145 prostate carcinoma, PC-3 prostate carcinoma, all cell lines along with major genetic alterations are listed on Table 2. Pooled donor human umbilical vein endothelial cells (HUVEC, Lonza, cat. CC-2519) and human mesenchymal stem cells (hMSC, Lonza, cat. PT-2501) were purchased from Lonza (Walkersville, MD).
PDMR cell lines were grown in complete medium (DC medium): Dulbecco's modified Eagle's medium (DMEM)/F12 supplemented with 5% fetal bovine serum (FBS), 2 mM L-glutamine, 100 U/mL penicillin and 100 µg/ml streptomycin, 0.4 µg/ml hydrocortisone, 10 ng/ml epidermal growth factor (EGF) recombinant human protein, 24 µg/mL adenine, and 0.1 mg/mL primocin. During culture from frozen stock vials, PDMR cells were cultured in the same medium containing 10 µM Y-27632 (see Table 3). The PDCs were cultured in complete DMEM/F12 media without 10 microM Y-27632 dihydrochloride for at least two passages prior to the screen. The pooled donor HUVEC and hMSC were cultured in endothelial cell growth medium 2 (PromoCell, Heidelberg, Germany, cat. C-22011) and mesenchymal stem cell growth medium 2 (PromoCell, cat. C-28009), respectively. For all experiments, HUVEC and hMSC were used at passages </=5.
[…]

[1] = curve of first compound, second compound 0.1 µM
[2] = curve of first compound, second compound 0.316 µM
[3] = curve of first compound, second compound 1 µM

## Cn1cnc2c(F)c(Nc3ccc(Br)cc3Cl)c(C(=O)NOCCO)cc21 + CC(C)NCC(C(=O)N1CCN(c2ncnc3c2C(C)CC3O)CC1)c1ccc(Cl)cc1
[1]
  IC50: > 3 µM
[2]
  IC50: > 3 µM
[3]
  IC50: 1.41 µM
Curve of first compound, second compound 3.16 µM
  IC50: < 0.00949 µM
Curve of first compound, second compound 10 µM
  IC50: < 0.00949 µM
Second compound 0.1 µM, first compound 0.00949 µM
  viability, T/C: 87.8%
Second compound 0.1 µM, first compound 0.03 µM
  viability, T/C: 89.6%
Second compound 0.1 µM, first compound 0.0949 µM
  viability, T/C: 92.5%
Second compound 0.1 µM, first compound 0.3 µM
  viability, T/C: 86.2%
Second compound 0.1 µM, first compound 0.949 µM
  viability, T/C: 95%
Second compound 0.1 µM, first compound 3 µM
  viability, T/C: 82.5%
Second compound 0.316 µM, first compound 0.00949 µM
  viability, T/C: 80.8%
Second compound 0.316 µM, first compound 0.03 µM
  viability, T/C: 86.2%
Second compound 0.316 µM, first compound 0.0949 µM
  viability, T/C: 89.8%
Second compound 0.316 µM, first compound 0.3 µM
  viability, T/C: 77.9%
Second compound 0.316 µM, first compound 0.949 µM
  viability, T/C: 82.5%
Second compound 0.316 µM, first compound 3 µM
  viability, T/C: 67%
Second compound 1 µM, first compound 0.00949 µM
  viability, T/C: 58.7%
Second compound 1 µM, first compound 0.03 µM
  viability, T/C: 73.4%
Second compound 1 µM, first compound 0.0949 µM
  viability, T/C: 67.4%
Second compound 1 µM, first compound 0.3 µM
  viability, T/C: 50.9%
Second compound 1 µM, first compound 0.949 µM
  viability, T/C: 54.4%
Second compound 1 µM, first compound 3 µM
  viability, T/C: 44.7%
Second compound 3.16 µM, first compound 0.00949 µM
  viability, T/C: 43%
Second compound 3.16 µM, first compound 0.03 µM
  viability, T/C: 48.5%
Second compound 3.16 µM, first compound 0.0949 µM
  viability, T/C: 43.5%
Second compound 3.16 µM, first compound 0.3 µM
  viability, T/C: 38.4%
Second compound 3.16 µM, first compound 0.949 µM
  viability, T/C: 40.8%
Second compound 3.16 µM, first compound 3 µM
  viability, T/C: 31.3%
Second compound 10 µM, first compound 0.00949 µM
  viability, T/C: 30.7%
Second compound 10 µM, first compound 0.03 µM
  viability, T/C: 41.4%
Second compound 10 µM, first compound 0.0949 µM
  viability, T/C: 37.5%
Second compound 10 µM, first compound 0.3 µM
  viability, T/C: 34.8%
Second compound 10 µM, first compound 0.949 µM
  viability, T/C: 35.5%
Second compound 10 µM, first compound 3 µM
  viability, T/C: 27.5%

## C=CC(=O)N1CCN(c2nc(=O)n(-c3c(C)ccnc3C(C)C)c3nc(-c4c(O)cccc4F)c(F)cc23)C(C)C1 (configuration not stated)
Compound 0.0316 µM
  viability, T/C: 98.6% and 117%
Compound 0.1 µM
  viability, T/C: 106%
Compound 0.316 µM
  viability, T/C: 102% and 121%
Compound 1 µM
  viability, T/C: 103% and 107%
Compound 3.16 µM
  viability, T/C: 107% and 83.4%
Compound 10 µM
  viability, T/C: 71.2% and 76.7%
Curve of compound
  IC50: > 10 µM

## COc1c(OCCCN2CCOCC2)ccc2c3n(c(=NC(=O)c4cnc(N)nc4)nc12)CCN3 + CCN1CCN(Cc2ccc(Nc3ncc(F)c(-c4cc(F)c5nc(C)n(C(C)C)c5c4)n3)nc2)CC1
Curve of first compound, second compound 0.01 µM
  IC50: 0.0423 µM
Curve of first compound, second compound 0.0316 µM
  IC50: 0.0298 µM
[1]
  IC50: 0.0297 µM
[2]
  IC50: 0.042 µM
[3]
  IC50: 0.0571 µM
Second compound 0.01 µM, first compound 0.00316 µM
  viability, T/C: 101%
Second compound 0.01 µM, first compound 0.01 µM
  viability, T/C: 79.7%
Second compound 0.01 µM, first compound 0.0316 µM
  viability, T/C: 61.3%
Second compound 0.01 µM, first compound 0.1 µM
  viability, T/C: 27.7%
Second compound 0.01 µM, first compound 0.316 µM
  viability, T/C: 9.2%
Second compound 0.01 µM, first compound 1 µM
  viability, T/C: 11.6%
Second compound 0.0316 µM, first compound 0.00316 µM
  viability, T/C: 91.2%
Second compound 0.0316 µM, first compound 0.01 µM
  viability, T/C: 82.2%
Second compound 0.0316 µM, first compound 0.0316 µM
  viability, T/C: 46.5%
Second compound 0.0316 µM, first compound 0.1 µM
  viability, T/C: 22.8%
Second compound 0.0316 µM, first compound 0.316 µM
  viability, T/C: 7.69%
Second compound 0.0316 µM, first compound 1 µM
  viability, T/C: 11.1%
Second compound 0.1 µM, first compound 0.00316 µM
  viability, T/C: 99.2%
Second compound 0.1 µM, first compound 0.01 µM
  viability, T/C: 78.8%
Second compound 0.1 µM, first compound 0.0316 µM
  viability, T/C: 48.9%
Second compound 0.1 µM, first compound 0.1 µM
  viability, T/C: 23.4%
Second compound 0.1 µM, first compound 0.316 µM
  viability, T/C: 8.37%
Second compound 0.1 µM, first compound 1 µM
  viability, T/C: 9.47%
Second compound 0.316 µM, first compound 0.00316 µM
  viability, T/C: 93.1%
Second compound 0.316 µM, first compound 0.01 µM
  viability, T/C: 73.5%
Second compound 0.316 µM, first compound 0.0316 µM
  viability, T/C: 56.5%
Second compound 0.316 µM, first compound 0.1 µM
  viability, T/C: 36.5%
Second compound 0.316 µM, first compound 0.316 µM
  viability, T/C: 17.9%
Second compound 0.316 µM, first compound 1 µM
  viability, T/C: 15%
Second compound 1 µM, first compound 0.00316 µM
  viability, T/C: 94%
Second compound 1 µM, first compound 0.01 µM
  viability, T/C: 66.7%
Second compound 1 µM, first compound 0.0316 µM
  viability, T/C: 59%
Second compound 1 µM, first compound 0.1 µM
  viability, T/C: 41%
Second compound 1 µM, first compound 0.316 µM
  viability, T/C: 36.6%
Second compound 1 µM, first compound 1 µM
  viability, T/C: 18%
